Data on five molecules can be found in article PMC7604625, “Glycolysis regulates Hedgehog signalling via the plasma membrane potential” (The EMBO Journal, 2020).

The subject of assay [1] is Smo-mEos2 localization to the primary cilium in NIH3T3 cells. Nature of the assay: Smo-mEos2 ciliary localization in NIH3T3/Smo-mEos2 cells (immunofluorescence). As to conditions: Hh ligands not present. It counts as cell-based. The method, then:
NIH3T3/Smo‐mEos2 cells (Kim et al, 2014) (a gift from P. Beachy, SUSM, Stanford, CA, USA) were grown to confluence on coverslips in DMEM (Thermo Fisher Scientific, #31966021) supplemented with 10% FBS (Thermo Fisher Scientific, #10270106), 1% penicillin/streptomycin (Thermo Fisher Scientific, #15140122) and 1% MEM non‐essential amino acids (Thermo Fisher Scientific, #11140050) at 37°C. For SAG, 3‐BP and 2‐DG treatment, cells were then shifted to serum‐deprived medium containing 0.5% FBS instead of 10% FBS and incubated for 24 h with 100 nM SAG (Merck, #566660), 25 mM of 2‐DG (ROTH, #CN96.3) or 15 μM 3‐BP (Sigma‐Aldrich, #16490‐10G), respectively, or without any compound at 37°C. […]
(§1) Only ring glands and wing discs that were processed in parallel, imaged using the same microscope settings, and properly mounted were used for quantifications. For quantification of immunohistochemical staining of CD8::GFP in ring glands, the mean pixel intensity of two regions of interest of 25 × 25 μm per ring gland was determined using ROI manager, and the average of these was used for the statistical analysis. For quantification of compartment size, wing disc folds served as morphological landmarks to outline the region of the wing pouch and the D/V boundary. The area of dorsal and ventral compartment was then determined using ROI manager. […] The mean grey value was measured using ROI manager. […]

The test system of assay [2] is PAC-NAE uptake into wing discs. Nature of the assay: Lipophorin-mediated PAC-NAE uptake in wing discs. It counts as cell-based, Drosophila. The method, then: The isolation procedure of Lipophorin (Lpp) particles was adapted from Panakova et al (2005). Briefly, 10 ml feeding third‐instar larvae were first washed with water and then with TNE buffer (100 mM Tris–HCl pH 7.5, 150 mM NaCl, 0.2 mM EGTA, cOmplete™ protease inhibitor cocktail (Roche, #000000011697498001)). All following steps were conducted at 4 °C (unless stated otherwise). Larvae were homogenized in TNE buffer in a tissue grinder with a loose pestle, and the homogenate was centrifuged for 10 min at 1,000 × g and afterwards for 3 h at 142,000 × g. The resulting supernatant (10 ml) was mixed with 40 μl 10 mM PAC‐NAE (EtOH solution) and sonicated for 5 min. […]
as §1, with “A/P boundary” for “mean grey value”, “determined according to anti‐Ci155 or anti‐Ptc co‐immunostaining.” for “measured using ROI manager.”

Assay [3] deals with ATP levels in ubi-AT1.03NL wing discs. Nature of the assay: Measurement of ATP using FRET-based ATP sensor AT1.03NL in explanted wing discs. It counts as cell-based, Drosophila. The conditions noted are these: explanted wing discs treated with antimycin A for 2 h. Here is the method:
Wing discs from up‐crawling third‐instar larvae were dissected within 10 min in Grace's medium supplemented with 5% FBS and 20 nM 20‐hydroxyecdysone (Dye et al, 2017). Dissected wing discs were mounted with their basal side up on glass‐bottom dishes (MatTek Corporation, #P35G‐1.0‐20‐C) with a double‐sided tape spacer and immobilized with a Whatman™ Cyclopore™ track‐etched polycarbonate membrane filter (GE Healthcare Life Sciences, #7062‐2513). Imaging of ubi‐AT1.03NL wing discs was performed on an Olympus IX81 microscope equipped with Yokogawa spinning disk (CSU‐W1, Yokogawa) and Ixon Ultra EMCCD camera (Andor). The sensitized emission method was used to measure FRET. Wing discs were excited with a 445 nm laser twice in a sequential manner. Upon first excitation, emission of mse‐CFP was collected using an HQ 480/40 bandpass filter. Upon second excitation, emission of cpVenus‐FRET was collected using an HQ 542/27 filter. The emission of cpVenus‐FRET has contributions from the energy transfer from mse‐CFP and bleed‐through of mse‐CFP into the HQ 542/27 filter. […]
A custom‐written MATLAB (MathWorks) script was used to estimate the FRET efficiency from the fluorescence images. […]
The FRET efficiency (η) was calculated as, η=IFRET/ID+IFRET […]

Assay [4] concerns plasma membrane potential of wing discs. Nature of the assay: Membrane potential assay with DiBAC4(3) in wing discs. It counts as cell-based, Drosophila. As to conditions: wing discs incubated with 1 μM gramicidin A for 30 min at 29°C. Here is the method: To investigate the plasma membrane potential, we used the membrane potential‐sensitive dye DiBAC4(3) (Thermo Fisher Scientific, #B438). Wing discs from up‐crawling third‐instar larvae were dissected in Grace's medium supplemented with 5% FBS and 20 nM 20‐hydroxyecdysone (full medium) (Dye et al, 2017), and incubated with 500 nM DiBAC4(3) in full medium for 15 min at 29°C. After washing twice with full medium, wing discs were mounted and imaged immediately. A higher fluorescence intensity of DiBAC4(3) indicates depolarization of the plasma membrane. […]
Only ring glands and wing discs that were processed in parallel, imaged using the same microscope settings, and properly mounted were used for quantifications. For quantification of immunohistochemical staining of CD8::GFP in ring glands, the mean pixel intensity of two regions of interest of 25 × 25 μm per ring gland was determined using ROI manager, and the average of these was used for the statistical analysis. For quantification of compartment size, wing disc folds served as morphological landmarks to outline the region of the wing pouch and the D/V boundary. The area of dorsal and ventral compartment was then determined using ROI manager. […] The A/P boundary was determined according to anti‐Ci155 or anti‐Ptc co‐immunostaining. […] The mean grey value was measured using ROI manager. […] The integrated density was measured using ROI manager. […]

Consider `O=CC[C@@H](O)[C@H](O)[C@H](O)CO` [2-DG, 2‐deoxyglucose], for which the “Smo-mEos2 accumulation in the primary cilium” value in assay [1] is recorded as “accumulates in the primary cilium”.

As for `O=C(O)C(=O)CBr` [3-BP, 3‐bromopyruvate], the “Smo-mEos2 accumulation in the primary cilium” value in assay [1] is “accumulates in the primary cilium”.

`C#CCCCC1(CCCCCCCCC(=O)NCCO)N=N1` [PAC-NAE]: the “PAC-NAE accumulation in wing disc tissue” value in assay [2] (knock-down of either ecd or Gapdh in the dorsal compartment, 1.5 μM PAC-NAE labelled Lpp particles) is listed as “autonomously reduced”.

For the molecule `CCCCCC[C@H]1C(=O)O[C@H](C)[C@H](NC(=O)c2cccc(NC=O)c2O)C(=O)O[C@@H](C)[C@@H]1OC(=O)CC(C)C` [antimycin A], the “FRET signal of ubi-AT1.03NL (cellular ATP levels)” value in assay [3] is “strongly reduced”.

On to gramicidin A, for which, in assay [4], the “Plasma membrane potential (DiBAC4(3) signal intensity)” value is recorded as “dissipate the plasma membrane potential”. In addition, in assay [2] (wing discs incubated with 1 μM gramicidin A, compared to control discs), the “Uptake of PAC-NAE” value is on record as “strongly reduces”.
